In ChEMBL document CHEMBL1201862, “PubChem BioAssay data set” (2004):
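Each compound was tested at five concentrations against cells in 96-well plates for 48 hours. GI50: concentration for 50% inhibition of growth.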 Calls of active or inactive are those of the source. Cut-off read from the data, not from the text of the source: active = GI50 up to about 1.1 µM and inactive = higher.

Legend:
Test in all cases: NCI tumour cell line growth inhibition, 48 h
786-0 = tested on: 786-0
A498 = tested on: A498
A549 = tested on: A549
ACHN = tested on: ACHN
BT-549 = tested on: BT-549
CAKI-1 = tested on: CAKI-1
CCRF-CEM = tested on: CCRF-CEM
COLO 205 = tested on: COLO 205
DU-145 = tested on: DU-145
EKVX = tested on: EKVX
HCC 2998 = tested on: HCC 2998
HCT-116 = tested on: HCT-116
HCT-15 = tested on: HCT-15
HL-60 = tested on: HL-60
HOP-62 = tested on: HOP-62
HOP-92 = tested on: HOP-92
HT-29 = tested on: HT-29
Hs-578T = tested on: Hs-578T
IGROV-1 = tested on: IGROV-1
K562 = tested on: K562
KM12 = tested on: KM12
LOX IMVI = tested on: LOX IMVI
M14 = tested on: M14
MCF7 = tested on: MCF7
MDA-MB-231 = tested on: MDA-MB-231
MDA-MB-435 = tested on: MDA-MB-435
MDA-N = tested on: MDA-N
MOLT-4 = tested on: MOLT-4
Malme-3M = tested on: Malme-3M
NCI-H226 = tested on: NCI-H226
NCI-H23 = tested on: NCI-H23
NCI-H460 = tested on: NCI-H460
NCI-H522 = tested on: NCI-H522
NCI/ADR-RES = tested on: NCI/ADR-RES
OVCAR-3 = tested on: OVCAR-3
OVCAR-5 = tested on: OVCAR-5
OVCAR-8 = tested on: OVCAR-8
PC-3 = tested on: PC-3
RPMI-8226 = tested on: RPMI-8226
RXF 393 = tested on: RXF 393
SF-268 = tested on: SF-268
SF-295 = tested on: SF-295
SF-539 = tested on: SF-539
SK-MEL-28 = tested on: SK-MEL-28
SK-MEL-2 = tested on: SK-MEL-2
SK-MEL-5 = tested on: SK-MEL-5
SK-OV-3 = tested on: SK-OV-3
SN12C = tested on: SN12C
SNB-19 = tested on: SNB-19
SNB-75 = tested on: SNB-75
SR = tested on: SR
SW-620 = tested on: SW-620
T47D = tested on: T47D
TK-10 = tested on: TK-10
U-251 = tested on: U-251
UACC-257 = tested on: UACC-257
UACC-62 = tested on: UACC-62
UO-31 = tested on: UO-31

## O=C(Cc1ccccc1)Nc1nc2ccc(Cl)cc2c2nc(-c3ccco3)nn12
786-0
  GI50: 10.1 µM (inactive)
A498
  GI50: > 60.3 µM (inactive)
A549
  GI50: > 100 µM (inactive)
ACHN
  GI50: 5.02 µM (inactive)
BT-549
  GI50: > 100 µM (inactive)
CAKI-1
  GI50: > 100 µM (inactive)
CCRF-CEM
  GI50: > 100 µM (inactive)
COLO 205
  GI50: > 100 µM (inactive)
DU-145
  GI50: > 100 µM (inactive)
EKVX
  GI50: > 70.8 µM (inactive)
HCC 2998
  GI50: > 100 µM (inactive)
HCT-116
  GI50: 14.8 µM (inactive)
HCT-15
  GI50: > 100 µM
HL-60
  GI50: > 100 µM (inactive)
HOP-62
  GI50: 16.4 µM (inactive)
HOP-92
  GI50: 2.48 µM (inactive)
HT-29
  GI50: > 100 µM (inactive)
Hs-578T
  GI50: 11 µM (inactive)
IGROV-1
  GI50: > 21.6 µM (inactive)
K562
  GI50: > 100 µM (inactive)
KM12
  GI50: > 100 µM (inactive)
LOX IMVI
  GI50: > 100 µM (inactive)
M14
  GI50: > 100 µM (inactive)
MCF7
  GI50: 4.46 µM (inactive)
MDA-MB-231
  GI50: > 21.2 µM (inactive)
MDA-MB-435
  GI50: > 100 µM (inactive)
MDA-N
  GI50: > 100 µM (inactive)
MOLT-4
  GI50: > 100 µM (inactive)
Malme-3M
  GI50: 53.7 µM (inactive)
NCI-H226
  GI50: > 35.6 µM (inactive)
NCI-H23
  GI50: 47.1 µM (inactive)
NCI-H460
  GI50: > 100 µM (inactive)
NCI-H522
  GI50: > 100 µM (inactive)
NCI/ADR-RES
  GI50: > 41.2 µM (inactive)
OVCAR-3
  GI50: > 100 µM (inactive)
OVCAR-5
  GI50: > 100 µM (inactive)
OVCAR-8
  GI50: > 57.9 µM (inactive)
PC-3
  GI50: > 100 µM (inactive)
RPMI-8226
  GI50: > 100 µM (inactive)
RXF 393
  GI50: 17.7 µM (inactive)
SF-268
  GI50: > 62.8 µM (inactive)
SF-295
  GI50: 21.7 µM (inactive)
SF-539
  GI50: 7.69 µM (inactive)
SK-MEL-28
  GI50: > 100 µM (inactive)
SK-MEL-2
  GI50: > 67.9 µM (inactive)
SK-MEL-5
  GI50: 89.5 µM (inactive)
SK-OV-3
  GI50: 39.6 µM (inactive)
SN12C
  GI50: > 100 µM (inactive)
SNB-19
  GI50: > 35.7 µM (inactive)
SNB-75
  GI50: 5.02 µM (inactive)
SR
  GI50: 3.44 µM (inactive)
SW-620
  GI50: > 100 µM (inactive)
T47D
  GI50: > 100 µM (inactive)
TK-10
  GI50: > 35.1 µM (inactive)
U-251
  GI50: 16.8 µM (inactive)
UACC-257
  GI50: > 100 µM (inactive)
UACC-62
  GI50: > 100 µM (inactive)
UO-31
  GI50: > 100 µM (inactive)
